The test has as its target T1, HIV-1 RT-associated RNase H (Human immunodeficiency virus type 1 group M subtype B, UniProt P04585).
T1 construct: HIV-1 group M subtype B heterodimeric reverse transcriptase (RT) was expressed and purified; made in house; host or cells: Escherichia coli strain M15, p6HRT-Prot expression vector
The experiment in a line: HIV-1 RT-associated RNase H inhibition (fluorescent RNA/DNA hybrid). The class given is biochemical. The conditions noted are these: HIV-1 RT wt; average of three independent determinations; read-out: IC50, concentration required to inhibit 50% of in vitro RNase H activity. As for the experimental part:
The tested compounds were initially dissolved in dimethyl sulfoxide (DMSO) at a concentration of 50 mM and subsequently serially diluted (ratio 1:3). The compounds were tested as previously described.
Briefly, a reaction mixture containing 50 mM Tris-HCl buffer pH 7.8, 6 mM MgCl2, 1 mM dithiothreitol (DTT), 80 mM KCl, 0.25 μM hybrid RNA/DNA. 25 μM of RNA/DNA hybrid 5′-GAUCUGAGCCUGGAGCU-Fluorescin-3′ (HPLC, dry, QC: Mass Check), 5′-Dabcyl-AGCTCCCAGGCTCAGATC-3′ (HPLC, dry, QC: Mass Check), and increasing concentrations of inhibitors was diluted in DMSO. The activity of the RNase H function associated with HIV-1 RT was quantified by measuring the linear portion of the dose–response curve. The reaction mixture was incubated at 37 °C for 10 min with a Victor Nivo 5 multilabel plate reader (model 1420-051, PerkinElmer, Waltham, MA, USA), and fluorescence signals were recorded at excitation/emission wavelengths of 490/528 nm. Based on the obtained fluorescence data, the inhibitory concentration 50 (IC50) of the target compounds was calculated by interpolation on a dose–response curve. Results are reported as average and standard deviation of at least two independent replicates in triplicate.
In the case of `O=C1Nc2c(Cl)cccc2C1=NNc1cc(=O)[nH]c(=O)[nH]1` [Compound 6l, 6-(2-(7-Chloro-2-oxoindolin-3-ylidene)hydrazineyl)pyrimidine-2,4(1H,3H)-dione], the IC50 was 46.6 ± 3.25 µM.

`O=C1Nc2ccc(OC(F)(F)F)cc2C1=NNc1cc(=O)[nH]c(=O)[nH]1` [Compound 6f, 6-(2-(2-Oxo-5-(trifluoromethoxy)indolin-3-ylidene)hydrazineyl)pyrimidine-2,4(1H,3H)-dione]: the IC50 amounted to 8.94 ± 1.43 µM.

For the molecule `O=C1Nc2cc(F)ccc2C1=NNc1cc(=O)[nH]c(=O)[nH]1` [Compound 6g, 6-(2-(6-Fluoro-2-oxoindolin-3-ylidene)hydrazineyl)pyrimidine-2,4(1H,3H)-dione], the IC50 is 56.8 ± 15.9 µM.

In the case of `O=C1Nc2c(Br)cccc2C1=NNc1cc(=O)[nH]c(=O)[nH]1` [Compound 6m, 6-(2-(7-Bromo-2-oxoindolin-3-ylidene)hydrazineyl)pyrimidine-2,4(1H,3H)-dione], the IC50 worked out at 43.8 ± 7.92 µM.

Consider `O=C1Nc2ccc(F)cc2C1=NNc1cc(=O)[nH]c(=O)[nH]1` [Compound 6a, 6-(2-(5-Fluoro-2-oxoindolin-3-ylidene)hydrazineyl)pyrimidine-2,4(1H,3H)-dione], for which the IC50 amounted to 81.2 ± 11.4 µM.

On to `O=C1Nc2ccc(Cl)cc2C1=NNc1cc(=O)[nH]c(=O)[nH]1` [Compound 6c, 6-(2-(5-Chloro-2-oxoindolin-3-ylidene)hydrazineyl)pyrimidine-2,4(1H,3H)-dione], for which the IC50 came to 58.8 ± 2.4 µM.

In the case of `COc1cccc2c1NC(=O)C2=NNc1cc(=O)[nH]c(=O)[nH]1` [Compound 6r, 6-(2-(7-Methoxy-2-oxoindolin-3-ylidene)hydrazineyl)pyrimidine-2,4(1H,3H)-dione], the IC50 was over 100 µM.

As to `O=C1Nc2ccccc2C1=NNc1cc(=O)[nH]c(=O)[nH]1` [Compound 6b, 6-(2-(2-Oxoindolin-3-ylidene)hydrazineyl)pyrimidine-2,4(1H,3H)-dione], the IC50 was over 100 µM.

For the molecule `Cc1cc(C)c2c(c1)C(=NNc1cc(=O)[nH]c(=O)[nH]1)C(=O)N2` [Compound 6v, 6-(2-(5,7-Dimethyl-2-oxoindolin-3-ylidene)hydrazineyl)pyrimidine-2,4(1H,3H)-dione], the IC50 turned out to be 23.6 ± 3.89 µM.

`O=C1Nc2cc(Br)c(Br)cc2C1=NNc1cc(=O)[nH]c(=O)[nH]1` [Compound 6u, 6-(2-(5,6-Dibromo-2-oxoindolin-3-ylidene)hydrazineyl)pyrimidine-2,4(1H,3H)-dione]: the IC50 is 11.8 ± 0.81 µM.

`Cc1cccc2c1NC(=O)C2=NNc1cc(=O)[nH]c(=O)[nH]1` [Compound 6n, 6-(2-(7-Methyl-2-oxoindolin-3-ylidene)hydrazineyl)pyrimidine-2,4(1H,3H)-dione]: the IC50 came to 25.5 ± 1.37 µM.

For `O=C1Nc2cc(F)c(F)cc2C1=NNc1cc(=O)[nH]c(=O)[nH]1` [Compound 6s, 6-(2-(5,6-Difluoro-2-oxoindolin-3-ylidene)hydrazineyl)pyrimidine-2,4(1H,3H)-dione], the IC50 worked out at 64.9 ± 0.77 µM.

As to `O=C1Nc2cc(OC(F)(F)F)ccc2C1=NNc1cc(=O)[nH]c(=O)[nH]1` [Compound 6j, 6-(2-(2-Oxo-6-(trifluoromethoxy)indolin-3-ylidene)hydrazineyl)pyrimidine-2,4(1H,3H)-dione], the IC50 amounted to 15.28 ± 0.01 µM.

As to `O=C1Nc2ccc(Br)cc2C1=NNc1cc(=O)[nH]c(=O)[nH]1` [Compound 6d, 6-(2-(5-Bromo-2-oxoindolin-3-ylidene)hydrazineyl)pyrimidine-2,4(1H,3H)-dione], the IC50 was over 100 µM.

For `O=C1Nc2c(F)cccc2C1=NNc1cc(=O)[nH]c(=O)[nH]1` [Compound 6k, 6-(2-(7-Fluoro-2-oxoindolin-3-ylidene)hydrazineyl)pyrimidine-2,4(1H,3H)-dione], the IC50 was over 100 µM.

For `COc1ccc2c(c1)C(=NNc1cc(=O)[nH]c(=O)[nH]1)C(=O)N2` [Compound 6p, 6-(2-(5-Methoxy-2-oxoindolin-3-ylidene)hydrazineyl)pyrimidine-2,4(1H,3H)-dione], the IC50 was over 100 µM.

The record behind these values is paper PMC12073785, “Design, Synthesis and Biological Evaluation of 3-Hydrazonoindolin-2-one Derivatives as Novel HIV-1 RNase H Inhibitors” (Molecules, 2025).
